Test results from US20080254152A1, “Methods for Reducing the Effects of Stress on Skin Condition” (priority 2003, published 2008).

Legend:
[1] = tested on: ICAM-1 expression in HUVECs; test: ICAM-1 expression in HUVECs pre-treated 5 days with dexamethasone, then oxidatively stressed with PMA (ELISA); format: cell-based, Human; conditions: chronic 1 μM glucocorticoid 5 days, then 1 μM PMA; HUVEC; FIG. 1
Method: (§1) An in vitro model has been developed to investigate the impact of chronic stress on the inflammatory status of endothelial cells. • a. Cells are grown in 6-well (9.5 cm^2) plates. • b. […] Tissue culture supernatant and cell pellets are harvested at timepoint T0. • d. The cells are oxidatively stressed with 1 μM Phorbol Myristate Acetate (PMA). • e. Tissue culture supernatant and cell pellets were harvested at 6, 24 and 48 hours (T6, T24 and T48, respectively) post-PMA treatment. • f. All tissue culture supernatant was assayed for Lactate Dehydrogenase (LDH), as a measure of cytotoxicity, and Interleukin-6 synthesis. • g. All cells were counted (Beckman Coulter Counter) and pelleted and cell lysate assayed for ICAM-1 expression (Intra Cellular Adhesion Molecule 1).
HUVEC cells (Human umbilical vein endothelial cells, TCS Biologicals) were cultured and passaged in EGM-2 (Endothelial growth medium, Biowhittaker) supplemented with heparin, VEGF (vascular endothelial growth factor), gentamicin sulphate, ascorbic acid, HEGF (Human endothelial growth factor), hydrocortisone, HFGF-B (Human fibroblast growth factor B), R3-IGF-1 (long R insulin-like growth factor 1) and FBS (foetal bovine serum).
Cells were routinely plated out in 6-well tissue culture dishes, at a seeding density of ˜5000 cells/cm^2 in 2 ml complete medium/well, 48 hours before starting the experiment, and incubated at 37° C. in 5% CO2.
Pre-treatment and test solutions were prepared in EGM-2 containing all supplements except hydrocortisone.
Following this, the cells were oxidatively stressed for 24 hours with 1 μM PMA (Sigma P8139).
Receptor antagonists were added to the cells during the pre-treatment period. These included the Glucocorticoid Receptor Antagonist; 2 μM Mifepristone (Sigma M8046) and two CRH receptor antagonists; 200 nM Astressin (Sigma A4933) and 200 nM α-helical CRF peptide antagonist (Sigma C2917).
Any change in cell morphology was noted before the cells were harvested. Both the tissue culture supernatant and the endothelial cells were harvested after the five-day pre-treatment period (T0), at 6 hours and 24 hours after addition of PMA (T6 and T24) and at 24 hours after removal of the PMA (T48). All tissue culture supernatants were stored at −20° C.
All cell pellets were lysed on ice for 30 minutes in 1 ml cell lysis buffer per 2.5×10^6 cells. The lysis buffer contained 1% NP-40, 0.1% sodium deoxycholate, 0.1% SDS, 6 mM sodium chloride and 0.05M Tris at pH 7.6. Protease inhibitor cocktail ([…]; Sigma P8340) was added prior to use at a level of 10 μl per ml of lysis buffer. The partially lysed cell pellets were completely homogenised with a pellet pestle and unwanted cell debris removed by centrifugation for 20 minutes at 20,000 g at 4° C. The clarified cell lysate was frozen at −80° C. until needed.
The total protein concentration of each cell lysate was measured using the Pierce BCA protein assay kit. A set of eight standard solutions ranging from 0 to 1200 μg/ml protein was prepared from the supplied 2 mg/ml BSA stock solution. 10 μl of standard or cell lysate was added to duplicate wells of a flat-bottomed, 96-well microtitre plate. The reagent solution was prepared according to the kit instructions from 50 parts reagent A and 1 part reagent B. 200 μl of the final reagent was added to each well of the microtitre plate. The plate was mixed, covered and incubated at 37° C. for 30 minutes and absorbance read at 562 nm.
ICAM-1 protein in each cell lysate was estimated using the Human sICAM-1 DuoSet ELISA kit (R&D Systems DY720) according to the manufacturer's instructions.
The capture antibody was diluted to a final concentration of 4 μg/ml in PBS and 100 μl was used to coat each well of a 96-well microtitre plate overnight at room temperature. The plate was then washed three times with wash buffer (0.05% Tween 20 in PBS).

[2] = tested on: IL-6 expression by Human Umbilical Vein Endothelial Cells; test: IL-6 ELISA of HUVEC tissue culture supernatant; format: cell-based; conditions: without PMA
Method: as §1

[3] = tested on: MMP-1 expression in human neonatal dermal fibroblast cells; test: Active MMP-1 in neonatal-derived human dermal fibroblasts after chronic dexamethasone and PMA; format: cell-based; conditions: for Suppression of MMP-1 synthesis and secretion vs control, untreated cells: chronic 1 μM dexamethasone 5 days then 1 μM PMA, neonatal fibroblasts
Method: In this study, to understand better the effect of chronic stress on dermal matrix remodelling in the skin, we have therefore measured changes in markers of dermal matrix degradation (MMP-1) and dermal matrix synthesis (Procollagen I) in chronically glucocorticoid-treated primary human dermal fibroblasts, following acute stress with PMA. The experimental approach is similar to that described in example 1 except that the cells tested are dermal fibroblasts and cells are assayed for expression of procollagen-1, MMP-1 and MMP-9 expression.
Primary human dermal fibroblast cells were cultured and passaged in DMEM (Gibco) supplemented with 10% FBS (foetal bovine serum). Cells were routinely plated out in 6-well tissue culture dishes, at a seeding density of ˜5000 cells/cm^2 in 2 ml complete medium/well for 24 hours, and incubated at 37° C. in 5% CO2. Media was removed and cells grown in DMEM & 1% FBS, 24 hours prior to treatments.
Pre-treatment and test solutions were prepared in DMEM containing low serum (1% FBS). […] Following this, the cells were oxidatively stressed for 24 hours with 1 μM PMA (Sigma P8139).
MMP-1 and MMP-9 protein in each cell supernatant was estimated using the Human active MMP-1 and MMP-9 Fluorokine enzyme kit (R&D Systems F1M00 and F9M00, respectively), according to the manufacturer's instructions.
Six MMP-1 and MMP-9 standards were prepared in calibrator diluent at concentrations ranging from 0.39 to 12.5 ng/ml and 0.25 to 16 ng/ml, respectively. 100 μl of assay diluent and 150 μl of tissue culture supernatant or standard was added to duplicate wells. The plate was incubated at room temperature for 3 hours on a horizontal orbital plate shaker before being washed four times with wash buffer. 200 μl of APMA was added to each well and the plate incubated at 37° C. for 2 hours in a humidified environment and protected from the light. The plate was washed as before. Each well received 200 μl of substrate solution and the plate incubated at 37° C. for 17-20 hours in a humidified environment and protected from the light. The relative fluorescence unit (RFU) of each well was determined using a fluorescence plate set with 1×20 mS integration time, plate speed ˜6; excitation wavelength set to 320 nm and emission wavelength set to 405 nm.
A standard curve was plotted of mean RFU versus MMP-1 and MMP-9 concentration (respectively), and the line of best fit calculated by regression analysis. The unknown concentration of either active MMP-1 or MMP-9 protein in all of the samples was estimated from this.
The same methods were used as described in Example 2, except that various test agents were added to the cells during the pre-treatment period.

Compound: C[C@@H]1C[C@H]2[C@@H]3CCC4=CC(=O)C=C[C@]4(C)[C@@]3(F)[C@@H](O)C[C@]2(C)[C@@]1(O)C(=O)CO [Dexamethasone]
- Induction of ICAM-1 synthesis after PMA, glucocorticoid pre-treated vs not pre-treated cells [1]: significantly greater
- IL-6 secretion with glucocorticoid alone [2]: did not cause increased secretion of IL-6
- Level of active MMP-1 ([3]; GC-treated neonate fibroblasts): 15 ng/mL
- Suppression of MMP-1 synthesis and secretion vs control, untreated cells ([3]; T6): ~60%
- Suppression of MMP-1 synthesis and secretion vs control, untreated cells ([3]; T24): 80%
- Suppression of MMP-1 synthesis and secretion vs control, untreated cells ([3]; T48): 70%
